Reference: patent US4870160A, “Polypeptides with laminin activity” (Regents of the University of Minnesota, priority 1987, dated 1989)
Peptide text beside a SMILES is read from it.

Tests used:
[1] = Heparin binding to peptides coated on 96-well plastic plates (Example 2); details: 1 mg/ml to 1 μg/ml, two hours at 37° C., FIG. 5
Procedure: In order to test the ability of the synthesized peptides (9 and 11-18) to bind to 96-well plastic plates (in which experiments with cultured cell lines can be performed), we did an experiment similar to that described above in Example 1. Stock solutions of peptides 9 and 11-18, laminin and BSA at a maximum concentration of 1 mg/ml were prepared and serially diluted in PBS+NaN3 producing final concentration from 1 mg/ml to 1 μg/ml. Fifty μl from each concentration was coated on the 96-well plates and left to dry overnight at 28° C. Then, wells were treated for two hours with […] of 2 mg/ml BSA in 6 mM phosphate, 100 mM NaCl, 68 μM CaCl2, pH 6.8 (wash buffer) in order to minimize non-specific binding. Next 50 μls of ^3 H-heparin (10 μg/ml) was added (50,000 cpm/well) for two hours at 37° C. The wells were then washed three times with wash buffer containing 0.05% Triton X-100 and finally they were incubated for thirty minutes at 60 C with 200 μl of 0.5 N NaOH and 1% SDS. The amount of ^3 H-heparin bound at each peptide concentration was quantitated as described above in Example 1.

[2] = test system: murine melanoma cells, K-1735-M4; assay: Cell adhesion assay for M4 cell line (Example 6A); format: cell-based; details: FIG. 10
Procedure: (§1) Adhesion was measured using 96 well microtiter plates adsorbed with three different amounts (0.1; 1.0; and 10.0 μg/per well) of peptides 9, 11-18, BSA and laminin. Cultures of cells which were 60-80% confluent were metabolically labeled for 24 hours with the addition of 3 mCi/ml of ^3 H-amino acid mixture. On the day of the assay, the cells were harvested by trypsinization, the trypsin was inhibited by the addition of serum, and the cells were washed free of this mixture and resuspended in DMEM buffered with HEPES at pH 7.2. The adhesion medium also contained 2 mg/ml BSA. The cells were adjusted to a concentration of 3-4×10^4 /ml and 100 μls of this cell suspension was added to the wells. The assay mixture was then incubated at 37° C for 120 minutes. At the end of the incubation, the wells were washed with warm PBS containing 10 mM Ca^++, and the adherent population was solubilized with 0.5N NaOH containing 1% sodium dodecyl sulfate. The solubilized cells were then quantitated using a liquid scintillation counter. Each determination was done in triplicate.
Highly metastatic murine melanoma cells, K-1735-M4 were originally provided by Dr. I. J. Fidler of Anderson Hospital, University of Texas Health Sciences Center, Houston, Tex. When the cells were received, a large number of early passage cells were propagated and frozen in liquid nitrogen. […]

[3] = test system: Murine fibrosarcoma cells (uv-2237-MM); assay: Cell adhesion assay for MM fibrosarcoma cell line (Example 6B); format: cell-based; details: FIG. 11
Procedure: as §1
Murine fibrosarcoma cells (uv-2237-MM) were originally provided by Dr. I. J. Fidler of Anderson Hospital, University of Texas Health Sciences Center, Houston, Tex. Culturing, labeling and harvesting techniques were as described in part A. Cell adhesion assay was performed as described in Example 5.

Rat C6 glioma cell line = assay: Cell adhesion assay for C6 cell line (Example 6C); format: cell-based; details: FIG. 12
Procedure: as §1
Rat C6 glioma cell line was purchased from the American Type Culture Collection (identification number CCL 107). Culturing techniques were as described in part A. Labelling and harvesting techniques were as described in Example 5. Cell adhesion assay was performed as described in Example 5.

| binding of ^3 H-heparin [1] | Structure (SMILES) | cell adhesion [2] | cell adhesion [3] | cell adhesion (Rat C6 glioma cell line) |
| --- | --- | --- | --- | --- |
| binds heparin but less extensively | CC[C@H](C)[C@H](NC(=O)[C@H](CCCCN)NC(=O)[C@H](CC(C)C)NC(=O)[C@H](C)NC(=O)[C@H](CCCCN)NC(=O)[C@H](C)NC(=O)[C@H](CCCCN)NC(=O)[C@H](CCC(=O)O)NC(=O)[C@H](CC(C)C)NC(=O)[C@H](Cc1ccccc1)NC(=O)[C@H](CCCCN)NC(=O)[C@H](Cc1c[nH]cn1)NC(=O)[C@@H](NC(=O)[C@H](CCCNC(=N)N)NC(=O)[C@H](CC(N)=O)NC(=O)[C@@H](NC(=O)[C@H](CC(C)C)NC(=O)[C@@H](N)CCC(=O)O)[C@@H](C)O)[C@@H](C)O)C(=O)O [Peptide F13, ELTNRTHKFLEKAKALKI] (H-ELTNRTHKFLEKAKALKI-OH) | potent promoters of cell adhesion | potent promoters of cell adhesion | potent promoters of cell adhesion |
| bind heparin very well | CSCC[C@H](NC(=O)CNC(=O)[C@H](CCCCN)NC(=O)[C@H](CCC(=O)O)NC(=O)[C@H](Cc1ccccc1)NC(=O)[C@H](CS)NC(=O)[C@@H](NC(=O)[C@@H]1CCCN1C(=O)[C@H](CCCNC(=N)N)NC(=O)[C@@H]1CCCN1C(=O)[C@H](CC(C)C)NC(=O)[C@@H](NC(=O)[C@@H](NC(=O)[C@H](Cc1ccc(O)cc1)NC(=O)[C@@H](N)CCCNC(=N)N)C(C)C)C(C)C)C(C)C)C(=O)N[C@@H](CC(N)=O)C(=O)N[C@@H](Cc1ccc(O)cc1)C(=O)N[C@H](C(=O)N[C@H](C(=O)N[C@@H](CCCNC(=N)N)C(=O)O)C(C)C)[C@@H](C)O [Peptide F9] (H-RYVVLPRPVCFEKGMNYTVR-OH) | potent promoters of cell adhesion | potent promoters of cell adhesion | potent promoters of cell adhesion |
